Test [1] addresses T1, Transcription initiation factor TFIID subunit 1 [1504-1635] (Homo sapiens, UniProt P21675).
T1 construct: 1504-1635
T1 sequence (P21675 whole entry): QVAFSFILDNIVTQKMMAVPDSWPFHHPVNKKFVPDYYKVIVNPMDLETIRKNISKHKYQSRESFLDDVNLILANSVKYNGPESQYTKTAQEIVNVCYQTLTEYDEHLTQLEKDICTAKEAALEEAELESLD
Put plainly: TR-FRET Binding Assay. Here is the method:
After a 10 minute incubation at room temperature, biotin-ligand (0.04 uM final) was added. […] After forty minutes of equilibration at room temperature, the plates were read on an Envision instrument and IC50s calculated using a four parameter logistic model (XLFIT).

Test [2] has as its target T2, Transcription initiation factor TFIID subunit 1 [1381-1497] (Homo sapiens, UniProt P21675).
T2 construct: 1381-1497
T2 sequence (P21675 whole entry): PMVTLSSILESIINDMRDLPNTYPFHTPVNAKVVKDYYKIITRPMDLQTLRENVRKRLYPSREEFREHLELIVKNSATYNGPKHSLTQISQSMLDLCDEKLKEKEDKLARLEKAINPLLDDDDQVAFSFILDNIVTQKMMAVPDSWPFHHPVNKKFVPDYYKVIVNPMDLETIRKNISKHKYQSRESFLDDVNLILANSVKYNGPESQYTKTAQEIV
The test is described as follows: TAF1-BD1 TR-FRET Binding Assay. As for the experimental part: Specifically, in a 384 well ProxiPlate, TAF1-BDI (0.08 uM final) in 50 mM HEPES (pH 7.5; final), 50 mM NaCl (final), 1 mM TCEP (final), 0.1 mg/mL BSA (final), and 0.069 mM Brij-35 (final) was added either in the presence of DMSO (final 0.2% DMSO) or compound dilution series in DMSO. After a 10 minute incubation at room temperature, biotin-ligand (0.08 uM final) was added. After 10 minutes incubation at room temperature, a mixture Eu-W1024 Anti-6×His antibody (Perkin Elmer ADO 110) and SureLight Streptavidin-Allophycocyanin (SA-APC, Perkin Elmer CR130-100) were added to final concentrations of 0.2 nM antibody and 0.05 uM SA-APC, respectively. After forty minutes of equilibration at room temperature, the plates were read on an Envision instrument and IC50s calculated using a four parameter logistic model (XLFIT).
Background: Time-resolved FRET reads energy transfer from a long-lived donor to a nearby acceptor.

Each structure is given as a SMILES string. Some results are limits rather than exact numbers.

One may read the IC50 as the midpoint of a concentration-inhibition curve. On to `CCOC(=O)c1c(C)[nH]c2c(=O)n(C)cc(C#CC(C)(O)CC)c12` (stereo unspecified) [US10202378, Example 65], for which the IC50 in test [1] is 135 nM; in test [2], 826 nM.
As to `CN(C)C(=O)c1c[nH]c2c(=O)n(C)cc(C#CC(C)(C)O)c12` [US10202378, Example 171], the IC50 in test [1] amounted to 1730 nM; in test [2], 4420 nM.
On to `CCOC(=O)c1c(C)[nH]c2c(=O)n(C)cc(C#CC3(O)CCN(C(=O)CC)CC3)c12` [US10202378, Example 10], for which the IC50 was 58.9 nM in test [1] and 2230 nM in test [2].
For the compound `CCC(C)C(C)OC(=O)c1c(C)[nH]c2c(=O)n(C)cc(C#CC(C)(C)O)c12` (stereo unspecified) [US10202378, Example 145], the values for the IC50 in test [1] and in test [2] were 53.3 nM and 272 nM, respectively.
Consider `CCOC(=O)c1c(C)[nH]c2c(=O)n(C)cc(C#CC(C)(C)N)c12` [US10202378, Example 67], for which the figures for the IC50 in test [1] and in test [2] were 4110 nM and 5210 nM, respectively.
As to `Cc1[nH]c2c(=O)n(C)cc(C#CC(C)(C)O)c2c1C(=O)OCC1CC1` [US10202378, Example 155], the results for the IC50 in test [1] and in test [2] were 52.8 nM and 274 nM, respectively.
Turning to `Cc1[nH]c2c(=O)n(C)cc(C#CC(C)(O)c3ccccc3)c2c1C(=O)OC(C)C` (stereo unspecified) [US10202378, Example 161], the IC50 turned out to be 51.1 nM in test [1] and 274 nM in test [2].
As for `CCOC(=O)c1c(C)[nH]c2c(=O)n(CC3CC3)cc(C#CC(C)(C)O)c12` [US10202378, Example 52], the IC50 in test [1] came out at 155 nM; in test [2], 8660 nM.
In the case of `Cc1[nH]c2c(=O)n(C)cc(C#CC(C)(C)O)c2c1C(=O)OC(C)C(C)C` (stereo unspecified) [US10202378, Example 152], the IC50 in test [1] was found to be 53.6 nM; in test [2] it was 235 nM.
Take `CC(=O)NCCCOC(=O)c1c(C)[nH]c2c(=O)n(C)cc(C#CC(C)(O)C3CC3)c12` (stereo unspecified) [US10202378, Example 140]: the figures for the IC50 in test [1] and in test [2] were 37.5 nM and 350 nM, respectively.
For the compound `CCOC(=O)c1c(C)[nH]c2c(=O)n(C)cc(C#CC(C)(O)C3CC3)c12` (stereo unspecified) [US10202378, Example 77], the IC50 was 49 nM in test [1] and 243 nM in test [2].
For the compound `CCOC(=O)c1c(C)[nH]c2c(=O)n(C)cc(C#CC(C)(O)c3nccs3)c12` (stereo unspecified) [US10202378, Example 68], the IC50 in test [1] turned out to be 122 nM; in test [2], 521 nM.
On to `CCOC(=O)c1c(C)[nH]c2c(=O)n(C)cc(C#CC3(O)CCN(C(C)=O)CC3)c12` [US10202378, Example 11], for which the figures for the IC50 in test [1] and in test [2] were 80 nM and 1490 nM, respectively.
With `Cc1[nH]c2c(=O)n(C)cc(C#CC(C)(O)C3CC3)c2c1-c1nnc(CO)o1` (stereo unspecified) [US10202378, Example 206], the concentration for half-maximal inhibition (IC50) came out at 73.5 nM in test [1] and 425 nM in test [2].
Take `Cc1cc([C@](C)(O)C#Cc2cn(C)c(=O)c3[nH]c(C)c(C(=O)OC(C)C(C)C)c23)no1` (stereo partly specified) [US10202378, Example 142]: the IC50 in test [1] came out at 52.8 nM; in test [2], 160 nM.
The matching figures for `CCC(C)(C)OC(=O)c1c(C)[nH]c2c(=O)n(C)cc(C#CC(C)(O)C3CC3)c12` (stereo unspecified) [US10202378, Example 138]: 47.9 nM and 251 nM.
The matching figures for `CC(=O)N1CCC(COC(=O)c2c(C)[nH]c3c(=O)n(C)cc(C#CC(C)(C)O)c23)CC1` [US10202378, Example 144]: 20.1 nM and 267 nM.
For `CCOC(=O)c1c(C)[nH]c2c(=O)n(C)cc(C#CC(C)(O)CO)c12` (stereo unspecified) [US10202378, Example 66], the IC50 in test [1] came to 100 nM; in test [2], 798 nM.
Consider `CCOC(=O)c1c(C)[nH]c2c(=O)n(C)cc(C#CC(C)(O)c3cccc(C)c3)c12` (stereo unspecified) [US10202378, Example 29], for which the IC50 worked out at 50.9 nM in test [1] and 303 nM in test [2].
On to `CCOC(=O)c1c(C)[nH]c2c(=O)n(C)cc(C#CC(C)(O)C3(C)CC3)c12` (stereo unspecified) [US10202378, Example 4], for which the IC50 is 72.7 nM in test [1] and 352 nM in test [2].
With `CCOC(=O)c1c(C)[nH]c2c(=O)n(C)cc(C#CC(C)(O)C3CCOC3)c12` (stereo unspecified) [US10202378, Example 7], the IC50 in test [1] stood at 181 nM; in test [2] it was 607 nM.
Regarding `CCOC(=O)c1c(C)[nH]c2c(=O)n(C)cc(C#CC(C)(O)CNc3ccccc3)c12` (stereo unspecified) [US10202378, Example 14], the IC50 in test [1] was 14800 nM; in test [2] it was above 20000 nM.
As to `CCOC(=O)c1c(C)[nH]c2c(=O)n(C)cc(C#CC(O)(c3ccc(N(C)C)cc3)C(F)(F)F)c12` (stereo unspecified) [US10202378, Example 3], the values for the IC50 in test [1] and in test [2] were 86.3 nM and 209 nM, respectively.

(Values after BindingDB's records for patent US10202378 (Genentech, 2019).)
